Reference: patent publication US20160106099A1, “MICROBICIDAL COMPOSITION COMPRISING ISOTHIAZOLONE AND AN AMINE OXIDE” (THOR GMBH, priority 2013, published 2016)

Tests used:
[1] = test system: Aspergillus niger (DSM 12623); assay: Minimum inhibitory concentration and synergy index (Kull) in Sabouraud glucose agar, visual growth reading; format: cell-based; conditions: 72 hours at 25° C.; for Synergistic Index Qa/QA + Qb/QB: below 1 = synergism, 1 = additive, above 1 = antagonism
Procedure: (§1) The synergism of a combination of 2-Methyl-isothiazolinone (MIT) with N,N-Dimethyldodecan-1-amine oxide was tested. Test organisms used was the mould Aspergillus niger (DSM 12623). For the purpose of the test, mixtures containing different concentrations of MIT and N,N-Dimethyldodecan-1-amine oxide were prepared and tested for their action on Aspergillus niger. […] The MIC is the concentration at which there is no formation of colonies or mycelia on the surface of the agar (Aspergillus niger).
(§2) The synergism that occurred was presented numerically by calculation of the synergy index (SI). This calculation was made using the common method of F. C. Kull et al., Applied Microbiology, vol. 9 (1961), p. 538. SI is calculated there in accordance with the following formula:
(§3) Synergy index SI=Qa/QA+Qb/QB
In the application of this formula to the MIT+N,N-Dimethyldodecan-1-amine oxide biocide system tested here, the variables in the formula have the following definition:
(§4) Qa=concentration of MIT in the mixture of N,N-Dimethyldodecan-1-amine oxide+MIT QA=concentration of MIT as sole biocide Qb=concentration of N,N-Dimethyldodecan-1-amine oxide in the biocide mixture of N,N-Dimethyldodecan-1-amine oxide+MIT QB=concentration of N,N-Dimethyldodecan-1-amine oxide as sole biocide
(§5) If the synergy index has a value of more than 1, this means that there is an antagonism. If the synergy index adopts a value of 1, this means that the action of the two biocides is additive. If the synergy index takes on a value of below 1, this means that there is synergism of the two biocides.
Determination of the Synergy Index of N,N-Dimethyldodecan-1-amine oxide+MIT in Respect of Aspergillus niger for an Incubation Time of 72 Hours at 25° C.

[2] = test system: Candida albicans (ATCC 10231); assay: Minimum inhibitory concentration and synergy index according to Kull et al.; format: cell-based; conditions: for Synergistic Index Qa/QA + Qb/QB: MIT + amine oxide
Procedure: as §1, §2, §3, §4, §5
Determination of the Synergy Index According to Kull et al. of N,N-Dimethyldodecan-1-amine oxide+MIT in Respect of Candida albicans (ATCC 10231)
The cell density of Candida albicans (ATCC 10231) was 10^6/ml, incubation time 72 hours, temperature 25° C.
Determination of the Synergy Index According to Kull et al. of N,N-Dimethyldodecan-1-amine oxide+MIT+2-n-octyl-4-isothiazolin-3-one (OIT) in Respect of Candida albicans (ATCC 10231)

[3] = Table 2, sum of MIT and amine oxide at MIC

| Compound | Synergistic Index Qa/QA + Qb/QB [1] | MHK Qb (Amine oxide) ([1]; amine oxide concentration at MIC, alone (MIC) or in mixture with MIT) | Synergistic Index Qa/QA + Qb/QB ([2]; Table 2, 72 hours, 25° C.) | MHK Qb (Amine oxide) ([2]; Table 2, amine oxide concentration at MIC, alone or in mixture with MIT, 72 hours, 25° C.) [ppm] | Qb/QB ([2]; Table 2, amine oxide in mixture / amine oxide as sole biocide) | Total [2, 3] [ppm] | MHK Qa (MIT) ([1]; MIT concentration at MIC, alone (MIC) or in mixture with amine oxide, 3,7·10^6 spores per ml) | MHK Qa (MIT) ([2]; Table 2, MIT concentration at MIC, alone or in mixture with amine oxide, 10^6/ml, 72 hours, 25° C.) [ppm] | Qa/QA ([2]; Table 2, MIT in mixture / MIT as sole biocide) | Total ([2]; Table 3) [ppm] | Synergistic Index ([2]; Table 3, MIT + amine oxide + OIT) | Qb/QB ([2]; Table 3, OIT component) | MHK Qb (OIT) ([2]; Table 3, OIT concentration at MIC, alone or with MIT + amine oxide) [ppm] |
| --- | --- | --- | --- | --- | --- | --- | --- | --- | --- | --- | --- | --- | --- |
| CCCCCCCCCCCC[N+](C)(C)[O-] [Amine oxide, N,N-Dimethyldodecan-1-amine oxide] | 1.00 | 231 (MIC) ppm | 1.00 | 50 | 1.00 | 50 |  |  |  |  |  |  |  |
| Cn1sccc1=O [MIT, 2-methylisothiazolin-3-one] | 1.00 |  | 1.00 |  |  | 125 | 1000 (MIC) ppm | 125 | 1.00 |  |  |  |  |
| CCCCCCCCn1sccc1=O [OIT, 2-n-octyl-4-isothiazolin-3-one] |  |  |  |  |  |  |  |  |  | 3 | 1.00 | 1.00 | 3 |
